Results published in patent US10822317B2, “Methods and compositions for wound healing” (QBiotics Limited, priority 2013, dated 2020).

Experiments:
[1] = test system: human neonatal fibroblasts; experiment: Scratch closure, human neonatal fibroblasts, Method 1; type: cell-based
Protocol: (§1) The ability of early. passage neonatal foreskin fibroblasts (NFF) cultured in RPMI 1640-10% foetal calf serum to migrate across a scratch wound made in a confluent monolayer following treatment with purified compounds or plant extracts was determined using one or more of the following three methods.
Cells were seeded in 16-mm diameter wells (24-well plates), allowed to become confluent and 2 scratches made in each well using a sterile plastic pipette tip. The medium was removed, the wells washed with phosphate-buffered saline pH 7.2 (PBS) to remove dislodged cells, fresh medium added followed by serial 10-fold dilutions of pure compound or plant extract (2 μL). Incubation was continued for 16 to 30 hr. The experiment was terminated when the scratch edges of untreated cultures had closed approximately 25% of the initial gap. The monolayers were washed with PBS, fixed with ethanol and stained with 0.05% crystal violet. Photomicrographs of each well (EVOS microscope) were printed and each scratch measured at 3 places to determine the mean width. Accelerated wound closure-was considered to be significant if the remaining gap was <40% of the gap of the untreated controls: […]

[2] = test system: human neonatal fibroblasts; experiment: Scratch closure, human neonatal fibroblasts, Method 3 (IncuCyte); type: cell-based
Protocol: as §1
Cells were seeded and treated in 96-well plates as in Method 2 (5 replicate wells per dilution), except that the scratches were made in one action with a tool having 96, 1 mm thick teflon coated pins (Essen Bioscience Woundmaker). The plate was then placed in a 37° C., 5% CO2 humidified atmosphere in an IncuCyte FLR instrument programmed to photograph each well under phase contrast at 3 hr intervals for 42 hours. The software determined the initial scratch boundaries and their rate of closure. Accelerated wound closure was considered to be significant if the initial rate of closure was >10% of the untreated controls.

[3] = test system: human neonatal fibroblasts; experiment: Matrigel invasion assay for migratory ability; type: cell-based; conditions: for Cell count as % of control (Control = no compounds added): 30 ng/mL, 24 hrs, fibroblasts starved 2 days, 1% foetal calf serum, ± standard deviation, two replicate experiments
Source text: Matrigel invasion chambers provide cells with the conditions that allow assessment of their invasive property in vitro. The Matrigel invasion chambers consists of a cell culture companion plate with cell culture inserts containing an 8 micron pore size PET membrane with a thin layer of Matrigel Basement Membrane Matrix. The Matrigel matrix serves as a reconstituted basement membrane in vitro. The layer occludes the pores of the membrane, blocking non-invasive cells from migrating through the membrane. In contrast, invasive cells are able to detach themselves from and invade through the Matrigel matrix and the 8 micron membrane pores. The membrane may be processed for light and electron microscopy and can be easily removed after staining.
The chambers were used according to the manufacturer's instructions, as described below in two studies, to assess the effects of Compounds 1, 2, 5 and 42 on migration of human neonatal fibroblasts. The first study assessed effects of three concentrations (0, 10 and 30 ng/mL) of Compound 1 on neonatal fibroblasts in wells containing media with 10% foetal calf serum. The second study used two concentrations (0 and 30 ng/mL) for each of Compounds 1, 2, 5 and 42 to examine effects on migration of neonatal fibroblasts starved for 2 days prior to treatment and then transferred to media with 1% foetal calf serum.
The package containing the chambers was removed from −20° C. storage and allowed to come to room temperature. Warm (37° C.) bicarbonate based culture medium was added to the interior of the inserts (500 μL) and bottom of wells (750 μL). The chambers containing the Matrigel were allowed to rehydrate for 2 hours in humidified tissue culture incubator, 37° C., 5% CO2 atmosphere. After rehydration, the medium was carefully removed by aspiration without disturbing the layer of Matrigel™ Matrix on the membrane.
Cells were harvested, and resuspended at 20,000 cells per mL. A total of 250 μL of the cell suspension was placed into the interior of the insert (5,000 cells). An extra 250 μL media containing the respective Compounds was then added to the interior of the insert to give the desired final concentrations for each of the two studies. A total of 750 μL of media containing appropriate concentrations of each compound in each treatment were placed in the well under the appropriate insert. The Matrigel chambers were then incubated for 24 hours in a humidified tissue culture incubator, at 37° C., 5% CO2 atmosphere.
Non-invading cells were removed from the upper surface of the membrane by “scrubbing”. A cotton tipped swab was dipped into the insert after removal of the media, and firm pressure applied while the tip was moved over the membrane surface. The scrubbing was repeated with a second swab moistened with PBS. Cells that had invaded to the external surface of the insert were then fixed by placing in […] of 100% methanol for at least 5 mins. Inserts were then transferred to a companion plate containing 500 μL of 0.1% crystal violet in methanol, and stained for at least 15 mins. Inserts were destained by passage through 3 companion plates containing 500 μL water, before being air dried.
The following day, the membrane was removed from the insert housing by inverting the insert and inserting the tip of a sharp scalpel blade through the membrane at the edge adjacent to the housing wall. The insert housing was rotated against the stationary blade and the membrane was released. […]

[4] = test system: human peripheral blood monocytes; experiment: Differentiation of monocytes into macrophages; type: cell-based; conditions: 10-fold dilutions; 4 days; adherence and morphology
Protocol: To determine potential effects of Compound 1 and fifteen other epoxy-tigliane compounds in the array on monocyte differentiation, human peripheral blood mononuclear cells (PBMCs) were isolated by Ficoll-Paque sedimentation of heparinised blood from a human donor, and plated at 100,000 cells/well in RPMI-1640 10% FCS. Duplicate wells were treated with 10-fold dilutions of the compounds and incubated at 37° C. for 4 days. The wells were scored visually for cell attachment and morphology, then washed twice with PBS, stained with sulfurhodamine and the incorporate stain quantitated in an ELISA reader. The plates were then washed with water and stained with 1% crystal violet in methanol for photography and scoring of adherent cell morphology.

mouse skin = experiment: Acute inflammatory response in mouse skin; type: in vivo; conditions: male nude mice, s.c. 50 μL of 100 μg/mL; for scarring of the healed site: 14 days; for diameter of affected area of skin: by 24 hr
Protocol: Male nude mice were injected subcutaneously on each flank with 50 μL of solutions of 100 μg/mL of Compounds 1, 2, 5 and 42 respectively in 20% propylene glycol. Each site reddened within 4 hr and by 24 hr the affected area covered approximately 1 cm diameter of skin.

| SMILES | % closure compared to control ([1]; 30 ng/mL) [%] | % closure compared to control ([1]; 100 ng/mL) [%] | staining pattern / growth of fibroblasts under the microscope ([1]; 24 hours post scratch) | % closure compared to control ([2]; 30 ng/mL) [%] | % closure compared to control ([2]; 100 ng/mL) [%] | Cell count as % of control (Control = no compounds added) [3] [%] | migratory ability in the Matrigel invasion chamber system vs vehicle alone ([3]; first study, 10 or 30 ng/mL, 10% foetal calf serum, 24 hours) | Differentiation endpoint (endpoint concentration in dilution series for induction of macrophage phenotype) [4] [ng/mL] | scarring of the healed site (mouse skin) | diameter of affected area of skin (mouse skin) |
| --- | --- | --- | --- | --- | --- | --- | --- | --- | --- | --- |
| CC=C(C)C(=O)OC1C(C)C2(O)C(C3OC3(CO)C(O)C3(O)C(=O)C(C)=CC32)C2C(C)(C)C12OC(=O)C(C)CC (centres unmarked) [Compound 1, 12-tigloyl-13-(2-methylbutanoyl)-6,7-epoxy-4,5,9,12,13,20-hexahydroxy-1-tigliaen-3-one] | 166 | 146 | growing in a multilayered fashion | 150 | 160 | 356 ± 141 | increased migratory ability | 1 | minimal scarring | approximately 1 cm |
| CCC(C)C(=O)OC1C(C)C2(O)C(C3OC3(CO)C(O)C3(O)C(=O)C(C)=CC32)C2C(C)(C)C12OC(=O)C(C)CC (centres unmarked) [Compound 2, 12,13-di-(2-methylbutanoyl)-6,7-epoxy-4,5,9,12,13,20-hexahydroxy-1-tigliaen-3-one] | 130 | 129 |  | 147 |  | 366 ± 122 |  | 1 | minimal scarring | approximately 1 cm |
